Test systems include NCI-H460; SK-OV-3; HT-29; U-251; SNB-75; PC-3; NCI-H226; DU-145; SK-MEL-28; RPMI-8226; OVCAR-5; UACC-62; SW-620; CCRF-CEM; UACC-257; SF-539; CAKI-1; Malme-3M; NCI-H522; SR.
Holding throughout (test): inhibition of tumour cell growth, NCI panel, 48 h

Consider twelve compounds from ChEMBL document CHEMBL1201862, “PubChem BioAssay data set” (2004).

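Results reflect a 48-hour exposure of cells in 96-well plates to compound at five concentrations. The concentration for 50% growth inhibition is given as GI50.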 The source made the active and inactive calls. Rule as the data show it: active = GI50 up to about 1.1 µM and inactive = higher. Where a SMILES comes first, the peptide text is derived from it. [ ]: non-standard residue; d: D form. The star is where a group is joined. Phe(2-OMe) = COc1ccccc1C[CH](N)C(=O)O; Cbz = O=C(OCc1ccccc1)*; OBn = c1ccc(CO*)cc1

`COc1ccc(/C=C2\N=C(SC)N(C)C2=O)cc1`: the GI50 is 99.1 µM (inactive) in the assay on NCI-H460; 97.9 µM (inactive) with SK-OV-3; 46.1 µM (inactive) with HT-29; 89.7 µM (inactive) in the assay on U-251; 41.6 µM (inactive) with SNB-75; 40.9 µM (inactive) with PC-3. Also, the GI50 was 47.3 µM (inactive) with NCI-H226; > 100 µM (inactive) with DU-145; > 100 µM (inactive) with SK-MEL-28; 50 µM (inactive) in the assay on RPMI-8226; 95.7 µM (inactive) in the assay with OVCAR-5; 70.3 µM (inactive) in the assay with UACC-62. Further, the GI50 in the assay with SW-620 was 80.2 µM (inactive); in the assay with CCRF-CEM, > 100 µM (inactive); with UACC-257 it was > 100 µM (inactive); in the assay on SF-539, 92 µM (inactive).
With `COC1=CC23CCCN2CCc2cc4c(cc2C3C1O)OCO4` (stereo not given), the GI50 was 36 µM (inactive) in the assay on NCI-H460; 27 µM (inactive) with SK-OV-3; 39.4 µM (inactive) with HT-29; > 100 µM (inactive) with U-251; 78.2 µM (inactive) in the assay on SNB-75; 59.3 µM (inactive) in the assay on PC-3. For the same compound, the GI50 was > 100 µM (inactive) in the assay with NCI-H226; 31.4 µM (inactive) in the assay on CAKI-1; 43 µM (inactive) in the assay on Malme-3M; 43 µM (inactive) with DU-145; > 100 µM (inactive) in the assay on SK-MEL-28; > 100 µM (inactive) in the assay with OVCAR-5. For the same compound, the GI50 with UACC-62 is > 100 µM (inactive); in the assay with SW-620 it was 66.1 µM (inactive); in the assay with CCRF-CEM, 41.2 µM (inactive); in the assay with UACC-257, > 100 µM (inactive); with NCI-H522, 29.2 µM (inactive); in the assay with SF-539, 40.6 µM (inactive).
On to `CCN(CC)CCn1ncc2c(N)ncnc21`, for which the GI50 in the assay on NCI-H460, in the assay on SK-OV-3, with HT-29, in the assay with U-251, in the assay with PC-3 and in the assay with NCI-H226 was > 100 µM (inactive) each time. For the same compound, the GI50 with CAKI-1, in the assay with Malme-3M, with DU-145, in the assay with SK-MEL-28, with RPMI-8226 and in the assay on OVCAR-5 was > 100 µM (inactive) throughout. Moreover, the GI50 in the assay with UACC-62 is > 100 µM (inactive); with SW-620, > 100 µM (inactive); with CCRF-CEM it was 34.7 µM (inactive); in the assay with NCI-H522 it was > 100 µM (inactive).
With `C=CCN(CC=C)Cn1c(=S)sc2ccccc21`, the GI50 in the assay with NCI-H460 is 82.8 µM (inactive); in the assay with SK-OV-3, 91.4 µM (inactive); in the assay on U-251, > 100 µM (inactive); in the assay on SNB-75, > 100 µM (inactive); with PC-3 it was > 100 µM (inactive); in the assay with CAKI-1 it was 15.3 µM (inactive). Moreover, the GI50 in the assay with DU-145 is > 100 µM (inactive); in the assay with SK-MEL-28 it was 37.5 µM (inactive); in the assay with OVCAR-5 it was > 100 µM (inactive); in the assay on UACC-62, 55.1 µM (inactive); in the assay with SW-620 it was 48.8 µM (inactive); with CCRF-CEM it was 22.2 µM (inactive). The GI50 in the assay with UACC-257 was > 100 µM (inactive); in the assay with NCI-H522, 18.7 µM (inactive); in the assay on SF-539 it was 55.6 µM (inactive).
For `O=C1C2CC=CCC2C(=O)N1n1c(-c2ccccc2)n[nH]c1=O` (stereo not given), the GI50 with NCI-H460, with SK-OV-3, in the assay on HT-29, in the assay on U-251, in the assay with PC-3 and in the assay with NCI-H226 was > 100 µM (inactive) throughout. The GI50 in the assay on SR, in the assay with CAKI-1, in the assay with Malme-3M, in the assay on RPMI-8226, with OVCAR-5 and in the assay with UACC-62 was > 100 µM (inactive) throughout. Also, the GI50 with SW-620, in the assay with CCRF-CEM, with UACC-257, in the assay on NCI-H522 and in the assay with SF-539 was > 100 µM (inactive) in each case.
`COC(=O)C1=CN(C2CCCCC2)C2(c3ccccc3)c3ccccc3C(=O)OC(=O)C12` (stereo not given): the GI50 in the assay with NCI-H460 is 80.2 µM (inactive); in the assay on SK-OV-3, > 100 µM (inactive); in the assay with HT-29, 62.2 µM (inactive); in the assay with U-251 it was 99.3 µM (inactive); in the assay on SNB-75, > 100 µM (inactive); with PC-3, 71.6 µM (inactive). Besides, the GI50 in the assay with NCI-H226 was > 100 µM (inactive); in the assay on CAKI-1, 46.8 µM (inactive); with Malme-3M, > 100 µM (inactive); in the assay on DU-145 it was > 100 µM (inactive); in the assay on SK-MEL-28, > 100 µM (inactive); with OVCAR-5, > 100 µM (inactive). The GI50 with SW-620 is > 100 µM (inactive); with CCRF-CEM, > 100 µM (inactive); in the assay on UACC-257, 49.2 µM (inactive); in the assay on NCI-H522 it was > 100 µM (inactive); in the assay with SF-539 it was > 100 µM (inactive).
On to `C=C(C1=CC(=O)C(C)(C)O1)[C@@H]1CC=C([C@@H]2CC[C@H]3[C@@]2(C)CC[C@H]2C(C)(C)C(=O)[C@H](O)C[C@]32C)[C@H](O)O1`, for which the GI50 in the assay on NCI-H460 is 13 µM (inactive); in the assay with SK-OV-3, 14.6 µM (inactive); with HT-29 it was 1.87 µM (inactive); with U-251 it was 1.62 µM (inactive); in the assay on SNB-75, 10.6 µM (inactive); in the assay with PC-3, 1.31 µM (inactive). Further, the GI50 in the assay on NCI-H226 is 17.5 µM (inactive); in the assay on CAKI-1 it was 3.89 µM (inactive); in the assay with Malme-3M it was 2.35 µM (inactive); in the assay on DU-145, 1.03 µM (active); in the assay on SK-MEL-28, 4.42 µM (inactive); in the assay on RPMI-8226, 0.342 µM (active). The GI50 in the assay with OVCAR-5 is 13.7 µM (inactive); in the assay with UACC-62, 4.88 µM (inactive); in the assay with SW-620, 1.66 µM (inactive); in the assay with CCRF-CEM it was 0.729 µM (active); in the assay with UACC-257 it was 1.97 µM (inactive); with SF-539, 1.34 µM (inactive).
On to `Clc1nc(NCCc2ccccc2)c2ncn(-c3ccccc3)c2n1`, for which the GI50 is 15.3 µM (inactive) in the assay with NCI-H460; 20.4 µM (inactive) in the assay with SK-OV-3; 16.2 µM (inactive) in the assay on HT-29; 16.2 µM (inactive) with U-251; 18 µM (inactive) with SNB-75; 16.1 µM (inactive) with PC-3. For the same compound, the GI50 was 24.1 µM (inactive) with NCI-H226; 7.83 µM (inactive) with CAKI-1; 21.1 µM (inactive) with Malme-3M; 25.2 µM (inactive) in the assay with DU-145; 33.3 µM (inactive) in the assay with SK-MEL-28; 18.5 µM (inactive) in the assay on RPMI-8226. Further, the GI50 with OVCAR-5 was 37.9 µM (inactive); in the assay with UACC-62, 20.8 µM (inactive); with SW-620 it was 29.3 µM (inactive); with UACC-257, 15.8 µM (inactive); in the assay with NCI-H522, 16 µM (inactive).
As for `O=c1[nH]nc(Cc2ccccc2)n1/N=C/c1cccs1`, the GI50 with NCI-H460 is > 100 µM (inactive); with SK-OV-3, > 100 µM (inactive); in the assay on HT-29, > 100 µM (inactive); in the assay with U-251, 48 µM (inactive); in the assay on SNB-75, > 100 µM (inactive); with PC-3, > 100 µM (inactive). Besides, the GI50 was > 100 µM (inactive) in the assay on NCI-H226; > 100 µM (inactive) in the assay with CAKI-1; > 100 µM (inactive) in the assay on Malme-3M; > 100 µM (inactive) with DU-145; > 100 µM (inactive) in the assay with SK-MEL-28; 47.1 µM (inactive) with RPMI-8226. Moreover, the GI50 is > 100 µM (inactive) with OVCAR-5; 36 µM (inactive) in the assay on UACC-62; > 100 µM (inactive) in the assay with SW-620; > 100 µM (inactive) in the assay with CCRF-CEM; > 100 µM (inactive) with UACC-257; > 100 µM (inactive) in the assay on SF-539.
In the case of `NS(=O)(=O)c1nnc(NS(=O)(=O)c2ccccc2C(=O)O)s1`, the GI50 with NCI-H460, in the assay with SK-OV-3, in the assay on HT-29, in the assay on U-251, with NCI-H226 and in the assay with SR was > 100 µM (inactive) each time. Moreover, the GI50 in the assay on CAKI-1, in the assay with Malme-3M, with DU-145, with SK-MEL-28, with RPMI-8226 and with OVCAR-5 was > 100 µM (inactive) throughout. The GI50 in the assay on UACC-62, with SW-620, with UACC-257 and with NCI-H522 was > 100 µM (inactive) throughout.
Regarding `CC(NNC(=O)c1ccc[n+]([BH2-]C#N)c1)c1ccccc1` (stereo not given), the GI50 in the assay with NCI-H460, in the assay on HT-29, in the assay on U-251, in the assay on SNB-75, in the assay with PC-3 and with NCI-H226 was > 100 µM (inactive) in each case. Moreover, the GI50 in the assay with CAKI-1, in the assay with Malme-3M, in the assay on DU-145, in the assay on SK-MEL-28, with OVCAR-5 and with UACC-62 was > 100 µM (inactive) throughout. The GI50 in the assay with SW-620 is > 100 µM (inactive); with CCRF-CEM, 78.7 µM (inactive); with UACC-257 it was > 100 µM (inactive); with NCI-H522, > 100 µM (inactive); in the assay with SF-539 it was > 100 µM (inactive).
As to `COC(=O)C(Cc1ccccc1OC)NC(=O)C(CC(=O)OCc1ccccc1)NC(=O)OCc1ccccc1` (stereo not given) (Cbz-Asp(OBn)-[Phe(2-OMe)]-OMe; configuration not given here), the GI50 in the assay on NCI-H460 is 34.4 µM (inactive); with HT-29, 65.3 µM (inactive); in the assay with U-251, 97.5 µM (inactive); with SNB-75, > 100 µM (inactive); in the assay on PC-3 it was 60 µM (inactive); in the assay with NCI-H226 it was > 100 µM (inactive). The GI50 in the assay with SR was 27.9 µM (inactive); in the assay on Malme-3M it was > 100 µM (inactive); in the assay with SK-MEL-28, 38.6 µM (inactive); with RPMI-8226 it was 41 µM (inactive); in the assay on OVCAR-5, > 100 µM (inactive); with UACC-62 it was 82 µM (inactive). For the same compound, the GI50 with SW-620 is > 100 µM (inactive); in the assay on CCRF-CEM, 38 µM (inactive); in the assay with UACC-257, > 100 µM (inactive).
